2 compounds from ChEMBL document CHEMBL1152209, “Synthesis and biological activity of previtamin D(3) analogues with A-ring modifications” (2008) can be followed below.

Test [1] deals with T1, Vitamin D3 receptor (Sus scrofa) (UniProt A3RGC1).
T1 sequence (whole entry): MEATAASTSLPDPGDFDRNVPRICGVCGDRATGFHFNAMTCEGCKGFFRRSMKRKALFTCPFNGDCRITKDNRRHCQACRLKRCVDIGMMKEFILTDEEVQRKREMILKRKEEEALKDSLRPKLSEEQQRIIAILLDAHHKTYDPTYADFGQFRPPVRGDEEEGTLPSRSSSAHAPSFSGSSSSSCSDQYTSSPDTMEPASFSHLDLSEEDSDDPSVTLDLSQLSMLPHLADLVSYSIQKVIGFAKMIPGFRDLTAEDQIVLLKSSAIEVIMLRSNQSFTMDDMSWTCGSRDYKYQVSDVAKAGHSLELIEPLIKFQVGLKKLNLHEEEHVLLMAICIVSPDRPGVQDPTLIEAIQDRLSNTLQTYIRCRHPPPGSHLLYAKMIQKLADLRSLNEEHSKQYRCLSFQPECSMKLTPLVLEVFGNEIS
Kind of test: Displacement of [3H]1-alpha,25-(OH)2D3 from pig VDR at EC50 relative to 1-alpha,25-(OH)2D3.

Test [2] concerns the target T2, Vitamin D-binding protein (Homo sapiens) (UniProt P02774).
T2 sequence (whole entry): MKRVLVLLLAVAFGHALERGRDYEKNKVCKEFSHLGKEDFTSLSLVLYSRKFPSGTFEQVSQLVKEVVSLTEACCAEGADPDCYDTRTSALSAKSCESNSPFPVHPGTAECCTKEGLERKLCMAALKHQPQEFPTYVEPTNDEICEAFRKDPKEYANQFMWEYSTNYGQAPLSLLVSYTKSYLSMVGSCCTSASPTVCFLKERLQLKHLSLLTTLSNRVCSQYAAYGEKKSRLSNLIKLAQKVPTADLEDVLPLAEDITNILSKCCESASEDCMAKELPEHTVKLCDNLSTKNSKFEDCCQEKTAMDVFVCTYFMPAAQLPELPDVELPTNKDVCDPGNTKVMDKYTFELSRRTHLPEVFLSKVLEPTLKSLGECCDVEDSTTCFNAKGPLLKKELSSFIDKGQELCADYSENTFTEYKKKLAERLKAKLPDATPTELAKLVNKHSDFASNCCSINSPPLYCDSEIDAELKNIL
As to the kind of experiment: Binding affinity to human DBP at EC50 in 4 degC relative to 1-alpha,25-(OH)2D3.

A further test relates to MCF7. As to the kind of experiment: Inhibition of human MCF7 cell proliferation assessed as [3H]thymidine incorporation at EC50 after 72 hrs relative to 1-alpha,25-(OH)2D3. The format is functional.

In the case of `C[C@H](CCCC(C)(C)O)[C@H]1CC[C@H]2C(/C=C\C3=C[C@@H](O)[C@@H]4O[C@@H]4C3)=CCC[C@]12C`, the Activity in test [1] is 0%; in test [2], 0.9%. Also, the “inhibition (INH)” value with MCF7 was 0%.

For `C[C@H](CCCC(C)(C)O)[C@H]1CC[C@H]2C(/C=C\C3=C[C@@H](O)[C@H](OCCCO)[C@H](O)C3)=CCC[C@]12C`, the Activity in test [1] turned out to be 0%; in test [2], 0.5%. In the test with MCF7, the “inhibition (INH)” value was 0%.
